# Reference: patent US20240158446A1, “CYCLIC COMPOUND HAVING SELECTIVE INHIBITORY ACTION ON KRAS OVER HRAS AND NRAS” (CHUGAI SEIYAKU KABUSHIKI KAISHA, priority 2021, published 2024)
# What was measured:
# [1] = target: GDP-bound KRAS wild-type protein (Homo sapiens, UniProt P01116); assay: Binding to KRAS by surface plasmon resonance (SPR), Single Cycle Kinetics; settings: SPR, Single Cycle Kinetics, GDP-bound KRAS wild-type protein; read-out: KRAS KD
# [2] = target: GDP-bound NRAS wild-type protein (Homo sapiens, UniProt P01111); assay: Binding to NRAS by surface plasmon resonance (SPR), Single Cycle Kinetics; settings: SPR, GDP-bound NRAS wild-type protein vs GDP-bound KRAS wild-type protein
# [3] = target: GDP-bound HRAS wild-type protein (Homo sapiens, UniProt P01112); assay: Binding to HRAS by surface plasmon resonance (SPR), Single Cycle Kinetics; settings: SPR, GDP-bound HRAS wild-type protein vs GDP-bound KRAS wild-type protein
# Chain of GDP-bound HRAS wild-type protein (P01112 whole entry): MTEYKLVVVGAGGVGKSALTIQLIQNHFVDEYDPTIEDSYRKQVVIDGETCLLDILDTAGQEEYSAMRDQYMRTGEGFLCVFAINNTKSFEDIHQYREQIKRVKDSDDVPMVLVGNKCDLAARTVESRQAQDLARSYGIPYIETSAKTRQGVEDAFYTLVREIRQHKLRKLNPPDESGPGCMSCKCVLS
# Chain of GDP-bound NRAS wild-type protein (P01111 whole entry): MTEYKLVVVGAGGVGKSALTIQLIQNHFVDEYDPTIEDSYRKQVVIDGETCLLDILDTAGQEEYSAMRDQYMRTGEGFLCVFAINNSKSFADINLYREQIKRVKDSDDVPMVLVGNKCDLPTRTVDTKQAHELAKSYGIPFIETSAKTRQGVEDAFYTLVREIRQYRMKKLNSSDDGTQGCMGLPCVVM
# Chain of GDP-bound KRAS wild-type protein (P01116 whole entry): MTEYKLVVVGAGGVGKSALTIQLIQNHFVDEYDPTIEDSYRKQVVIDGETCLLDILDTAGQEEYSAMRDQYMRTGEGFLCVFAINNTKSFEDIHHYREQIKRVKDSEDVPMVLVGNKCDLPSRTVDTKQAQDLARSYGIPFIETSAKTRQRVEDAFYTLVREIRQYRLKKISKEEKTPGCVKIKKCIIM
Structure (SMILES),Kd [1] [nM],NRAS/KRAS (ratio of KD value for NRAS to KD value for KRAS) [2],HRAS/KRAS (ratio of KD value for HRAS to KD value for KRAS) [3]
C=CCC[C@H]1C(=O)N[C@@H]([C@@H](C)CC)C(=O)N(C)CC(=O)N(C)[C@H]2CCCCN(C2=O)[C@@H](Cc2ccc(C(F)(F)F)cc2)C(=O)N(C)CC(=O)N[C@@H](CCc2cc(F)c(C(F)(F)F)c(F)c2)C(=O)N2C[C@H](OCC)C[C@H]2C(=O)N[C@](C)(CC=C)C(=O)N(C)[C@@H](C2CCCC2)C(=O)N(C)[C@H](C(=O)N2CCOCC2)CC(=O)N1C [PP0875],0.096,C (A compound having a KD ratio of 0.1 or more and less than 3 is denoted as C),B (a compound having 3 or more and less than 10 is denoted as B)
C=CC[C@H]1C(=O)N[C@@H]([C@@H](C)CC)C(=O)N(C)CC(=O)N(C)[C@H]2CCCCCN(C2=O)[C@@H](Cc2ccc(C(F)(F)F)cc2)C(=O)N(C)CC(=O)N[C@@H](CCc2cc(F)c(C(F)(F)F)c(F)c2)C(=O)N2C[C@H](OCC)C[C@H]2C(=O)N[C@](C)(CC=C)C(=O)N(C)[C@@H](C2CCCC2)C(=O)N(C)[C@H](C(=O)N2CCOCC2)CC(=O)N1C [PP0878],3.2,B (a compound having 3 or more and less than 10 is denoted as B),B (a compound having 3 or more and less than 10 is denoted as B)
CCO[C@@H]1C[C@H]2C(=O)NC3(CCC3)C(=O)N(C)[C@@H](C3CCCC3)C(=O)N(C)[C@H](C(=O)N(C)C)CC(=O)N(C)[C@@H](CC)C(=O)N[C@@H]([C@@H](C)CC)C(=O)N(C)CC(=O)N(C)[C@H]3CCCCN(C3=O)[C@@H](Cc3ccc(C(F)(F)F)cc3)C(=O)N(C)CC(=O)N[C@@H](CCc3ccc(C(F)(F)F)c(C)c3)C(=O)N2C1 [PP0882],0.02,C (A compound having a KD ratio of 0.1 or more and less than 3 is denoted as C),B (a compound having 3 or more and less than 10 is denoted as B)
CCO[C@@H]1C[C@H]2C(=O)NC3(CCC3)C(=O)N(C)[C@@H](C3CCCC3)C(=O)N(C)[C@H](C(=O)N(C)C)CC(=O)N(C)[C@@H](CC)C(=O)N[C@@H]([C@@H](C)CC)C(=O)N(C)CC(=O)N(C)[C@H]3CCCCN(C3=O)[C@@H](Cc3ccc(C(F)(F)F)cc3)C(=O)N(C)CC(=O)N[C@@H](CCc3ccc(C(F)(F)F)c(OC)c3)C(=O)N2C1 [PP0884],0.022,C (A compound having a KD ratio of 0.1 or more and less than 3 is denoted as C),C (A compound having a KD ratio of 0.1 or more and less than 3 is denoted as C)

# Further lines, with some results ahead:
Kd [1] [nM],Structure (SMILES),NRAS/KRAS (ratio of KD value for NRAS to KD value for KRAS) [2],HRAS/KRAS (ratio of KD value for HRAS to KD value for KRAS) [3]
0.4,C=CCCC[C@H]1C(=O)N[C@@H]([C@@H](C)CC)C(=O)N(C)CC(=O)N(C)[C@H]2CCCCN(C2=O)[C@@H](Cc2ccc(C(F)(F)F)cc2)C(=O)N(C)CC(=O)N[C@@H](CCc2cc(F)c(C(F)(F)F)c(F)c2)C(=O)N2C[C@H](OCC)C[C@H]2C(=O)N[C@](C)(CC=C)C(=O)N(C)[C@@H](C2CCCC2)C(=O)N(C)[C@H](C(=O)N2CCOCC2)CC(=O)N1C [PP0876],C (A compound having a KD ratio of 0.1 or more and less than 3 is denoted as C),C (A compound having a KD ratio of 0.1 or more and less than 3 is denoted as C)
0.21,C=CCCCC[C@H]1C(=O)N[C@@H]([C@@H](C)CC)C(=O)N(C)CC(=O)N(C)[C@H]2CCCCN(C2=O)[C@@H](Cc2ccc(C(F)(F)F)cc2)C(=O)N(C)CC(=O)N[C@@H](CCc2cc(F)c(C(F)(F)F)c(F)c2)C(=O)N2C[C@H](OCC)C[C@H]2C(=O)N[C@](C)(CC=C)C(=O)N(C)[C@@H](C2CCCC2)C(=O)N(C)[C@H](C(=O)N2CCOCC2)CC(=O)N1C [PP0877],C (A compound having a KD ratio of 0.1 or more and less than 3 is denoted as C),B (a compound having 3 or more and less than 10 is denoted as B)
